Laboratory results published in patent publication US5200424A, “Use of 10-membered ring lactones as lipid regulators” (priority 1990, dated 1993).

Key:
[1] = tested on: cholesterol biosynthesis in HEP-G2 cells; test: Cholesterol biosynthesis inhibition in HEP-G2 liver cell cultures (14C-acetate); type: cell-based; conditions: Homo sapiens, HepG2, standard products, 1 h preincubation, 3 h with (14C)acetate, read-out: IC50, inhibition of cholesterol biosynthesis
Procedure: Monolayers of HEP-G2 cells in liproprotein-free nutrient medium are preincubated with appropriate concentrations of the substances of the formula I to be tested for one hour. After addition of the […] biosynthesis precursor sodium (^14 C)acetate the incubation is continued for 3 hours. After this a portion of the cells is subjected to alkaline hydrolysis after addition of an internal standard of ^3 H-cholesterol. The lipids from the hydrolyzed cells are extracted with a chloroform/methanol mixture. This lipid mixture is, after addition of carrier cholesterol, fractionated by preparative thin-layer chromatography, the cholesterol band is stained and then isolated, and the amount of ^14 C-cholesterol formed from the ^14 C-precursor is determined by scintigraphy. Cellular protein was determined in an aliquot of the cells so that the amount of ^14 C-cholesterol formed from ^14 C-precursor per mg of cellular protein per unit time can be calculated. The control is used for comparison for the inhibitory effect of an added test product so that it is possible to state directly the inhibition of the cholesterol biosynthesis at a particular molar concentration of the test product in the medium. The integrity of the cell culture and the absence of cell damage owing to exposure to the product is assessed morphologically (light microscopy) and measured biochemically by determining the lactic dehydrogenase release into the incubation medium on aliquots of the cell culture.

serum lipoproteins = test: Lipoprotein fractionation by ultracentrifugation in rats (serum cholesterol, protein, triglycerides; hypolipemic effect); type: in vivo, Rat, male, strain: HOE WISKf (SPF 71); conditions: for % Change compared with control, Protein LDL / % Change compared with control, Protein VLDL / % Change compared with control, Total cholesterol HDL / % Change compared with control, Total cholesterol LDL / % Change compared with control, Total cholesterol VLDL / % Change compared with control, Triglycerides VLDL / Cholesterol HDL/LDL Based on control / Cholesterol HDL/LDL: male rat, by gavage; for % Change compared with control, Protein LDL / % Change compared with control, Protein VLDL / % Change compared with control, Total cholesterol HDL / % Change compared with control, Total cholesterol LDL / % Change compared with control, Total cholesterol VLDL / % Change compared with control, Triglycerides VLDL: 7 administrations; for Cholesterol HDL/LDL Based on control: control 1.00; for Cholesterol HDL/LDL: control 3.75
Procedure: Male rats with an initial weight above 180 g received the test product of the formula I in polyethylene glycol 400 by gavage once a day (in the morning) (0.5 ml/100 g of body weight); the relevant control group received only the same amount of solvent. The last (7th) administration took place 24 hours before blood sampling and sacrifice. There was free access to feed and water during the test. Feed was withdrawn 24 hours before the retroorbital blood sampling, which took place under light ether anesthesia before and after the treatment period (that is to say on the 1st and 8th day). Serum glutamic-oxalate transaminase (SGOT), serum glutamic-pyruvic transaminase (SGPT), alkaline phosphatase (aP), bilirubin and creatinine were determined in the serum of each individual animal. […] Immediately after the blood sampling the animals were sacrificed by distortion of the spinal column. The livers were removed, and the relative liver weight was determined. In addition, the body weight gain and the feed consumption were investigated. The statistical analysis was carried out by Student's t test.
To analyze the serum lipoproteins, after the treatment period the serum of all rats in a group was pooled.

[2] = Body weight, relative liver weight and feed consumption in rats; type: in vivo, Rat, male, strain: HOE WISKf (SPF 71); conditions: for % Change from control, Body weight after / % Change from control, rel. feed consumption after: male rat, after treatment
Procedure: (§1) Male rats with an initial weight above 180 g received the test product of the formula I in polyethylene glycol 400 by gavage once a day (in the morning) (0.5 ml/100 g of body weight); the relevant control group received only the same amount of solvent. The last (7th) administration took place 24 hours before blood sampling and sacrifice. There was free access to feed and water during the test. Feed was withdrawn 24 hours before the retroorbital blood sampling, which took place under light ether anesthesia before and after the treatment period (that is to say on the 1st and 8th day). Serum glutamic-oxalate transaminase (SGOT), serum glutamic-pyruvic transaminase (SGPT), alkaline phosphatase (aP), bilirubin and creatinine were determined in the serum of each individual animal. The total glycerol was measured from the pooled serum of all animals in a group as measure of the triglycerides (Eggstein, M. Kreutz, F. H.: Klin. Wschr. 44, 262 and 267 (1966); Wahlefeld, A. W., in: H. O. Bergmeier: Methoden der enzymatischen Analyse (Methods of enzymatic analysis), 2nd Edition, Volume II, Verlag Chemie 1974, Page 1878). Immediately after the blood sampling the animals were sacrificed by distortion of the spinal column. The livers were removed, and the relative liver weight was determined. In addition, the body weight gain and the feed consumption were investigated. The statistical analysis was carried out by Student's t test.

[3] = Serum enzymes, bilirubin and creatinine in rats; type: in vivo, Rat, male, strain: HOE WISKf (SPF 71); conditions: for Bilirubin, Final, mean / Creatinine, Final, mean / Serum enzymes SGOT, Final, mean / Serum enzymes SGPT, Final, mean / Serum enzymes aP, Final, mean / Bilirubin, Initial, mean / Creatinine, Initial, mean / Serum enzymes SGOT, Initial, mean / Serum enzymes SGPT, Initial, mean / Serum enzymes aP, Initial, mean: male rat; for Bilirubin, Final, mean / Creatinine, Final, mean / Serum enzymes SGOT, Final, mean / Serum enzymes SGPT, Final, mean / Serum enzymes aP, Final, mean: after treatment (8th day); for Bilirubin, Initial, mean / Creatinine, Initial, mean / Serum enzymes SGOT, Initial, mean / Serum enzymes SGPT, Initial, mean / Serum enzymes aP, Initial, mean: before treatment (1st day)
Procedure: as §1

Compound: CC[C@H](C)C(=O)O[C@H]1C[C@@H](C)C=C2C=C[C@H](C)[C@H](CC[C@@H]3C[C@@H](O)CC(=O)O3)[C@H]21 [Lovastatin, lovastatin]
- IC50 [1]: 23 nM
- % Change compared with control, Protein LDL (serum lipoproteins; 10 mg/kg/day): -16%
- % Change compared with control, Protein VLDL (serum lipoproteins; 10 mg/kg/day): -22%
- % Change compared with control, Total cholesterol HDL (serum lipoproteins; 10 mg/kg/day): -14%
- % Change compared with control, Total cholesterol LDL (serum lipoproteins; 10 mg/kg/day): -2%
- % Change compared with control, Total cholesterol VLDL (serum lipoproteins; 10 mg/kg/day): -32%
- % Change compared with control, Triglycerides VLDL (serum lipoproteins; 10 mg/kg/day): -15%
- Cholesterol HDL/LDL Based on control (serum lipoproteins; 10 mg/kg/day): 0.89
- Cholesterol HDL/LDL (serum lipoproteins; 10 mg/kg/day): 3.32
- % Change compared with control, Protein LDL (serum lipoproteins; 50 mg/kg/day): -19%
- % Change compared with control, Protein VLDL (serum lipoproteins; 50 mg/kg/day): -40%
- % Change compared with control, Total cholesterol HDL (serum lipoproteins; 50 mg/kg/day): -15%
- % Change compared with control, Total cholesterol LDL (serum lipoproteins; 50 mg/kg/day): -26%
- % Change compared with control, Total cholesterol VLDL (serum lipoproteins; 50 mg/kg/day): -52%
- % Change compared with control, Triglycerides VLDL (serum lipoproteins; 50 mg/kg/day): -38%
- Cholesterol HDL/LDL Based on control (serum lipoproteins; 50 mg/kg/day): 1.14
- Cholesterol HDL/LDL (serum lipoproteins; 50 mg/kg/day): 4.29
- % Change compared with control, Protein LDL (serum lipoproteins; 300 mg/kg/day): +5%
- % Change compared with control, Protein VLDL (serum lipoproteins; 300 mg/kg/day): -37%
- % Change compared with control, Total cholesterol HDL (serum lipoproteins; 300 mg/kg/day): -9%
- % Change compared with control, Total cholesterol LDL (serum lipoproteins; 300 mg/kg/day): +3%
- % Change compared with control, Total cholesterol VLDL (serum lipoproteins; 300 mg/kg/day): -49%
- % Change compared with control, Triglycerides VLDL (serum lipoproteins; 300 mg/kg/day): -34%
- Cholesterol HDL/LDL Based on control (serum lipoproteins; 300 mg/kg/day): 0.89
- Cholesterol HDL/LDL (serum lipoproteins; 300 mg/kg/day): 3.33
- effect on LDL-cholesterol compared with the compound according to the invention (serum lipoproteins; rat): distinctly inferior
- effect on VLDL and HDL compared with the compound according to the invention (serum lipoproteins; rat): about identical
- % Change from control, Body weight after ([2]; 10 mg/kg/day): +4%
- % Change from control, rel. feed consumption after ([2]; 10 mg/kg/day): +8%
- % Change from control, Body weight after ([2]; 50 mg/kg/day): 0%
- % Change from control, rel. feed consumption after ([2]; 50 mg/kg/day): +4%
- % Change from control, Body weight after ([2]; 300 mg/kg/day): +1%
- % Change from control, rel. feed consumption after ([2]; 300 mg/kg/day): +1%
- Bilirubin, Final, mean ([3]; 10 mg/kg/day): 2.7 µmol/L
- Creatinine, Final, mean ([3]; 10 mg/kg/day): 65 µmol/L
- Serum enzymes SGOT, Final, mean ([3]; 10 mg/kg/day): 59 U/L
- Serum enzymes SGPT, Final, mean ([3]; 10 mg/kg/day): 25 U/L
- Serum enzymes aP, Final, mean ([3]; 10 mg/kg/day): 302 U/L
- Bilirubin, Initial, mean ([3]; 10 mg/kg/day): 3.8 µmol/L
- Creatinine, Initial, mean ([3]; 10 mg/kg/day): 60 µmol/L
- Serum enzymes SGOT, Initial, mean ([3]; 10 mg/kg/day): 42 U/L
- Serum enzymes SGPT, Initial, mean ([3]; 10 mg/kg/day): 31 U/L
- Serum enzymes aP, Initial, mean ([3]; 10 mg/kg/day): 409 U/L
- Bilirubin, Final, mean ([3]; 50 mg/kg/day): 2.5 µmol/L
- Creatinine, Final, mean ([3]; 50 mg/kg/day): 62 µmol/L
- Serum enzymes SGOT, Final, mean ([3]; 50 mg/kg/day): 89 U/L
- Serum enzymes SGPT, Final, mean ([3]; 50 mg/kg/day): 46 U/L
- Serum enzymes aP, Final, mean ([3]; 50 mg/kg/day): 324 U/L
- Bilirubin, Initial, mean ([3]; 50 mg/kg/day): 2.9 µmol/L
- Creatinine, Initial, mean ([3]; 50 mg/kg/day): 60 µmol/L
- Serum enzymes SGOT, Initial, mean ([3]; 50 mg/kg/day): 38 U/L
- Serum enzymes SGPT, Initial, mean ([3]; 50 mg/kg/day): 31 U/L
- Serum enzymes aP, Initial, mean ([3]; 50 mg/kg/day): 355 U/L
- Bilirubin, Final, mean ([3]; 300 mg/kg/day): 2.9 µmol/L
- Creatinine, Final, mean ([3]; 300 mg/kg/day): 61 µmol/L
- Serum enzymes SGOT, Final, mean ([3]; 300 mg/kg/day): 107 U/L
- Serum enzymes SGPT, Final, mean ([3]; 300 mg/kg/day): 44 U/L
- Serum enzymes aP, Final, mean ([3]; 300 mg/kg/day): 369 U/L
- Bilirubin, Initial, mean ([3]; 300 mg/kg/day): 2.7 µmol/L
- Creatinine, Initial, mean ([3]; 300 mg/kg/day): 64 µmol/L
- Serum enzymes SGOT, Initial, mean ([3]; 300 mg/kg/day): 59 U/L
- Serum enzymes SGPT, Initial, mean ([3]; 300 mg/kg/day): 32 U/L
- Serum enzymes aP, Initial, mean ([3]; 300 mg/kg/day): 386 U/L
- transaminase SGOT change ([3]; rat): dose-dependent and distinctly pathological change

Compound: CCOC(=O)C(C)(C)Oc1ccc(Cl)cc1 [Clofibrate, clofibrate]
- % Change compared with control, Protein LDL (serum lipoproteins; 100 mg/kg/day): +2%
- % Change compared with control, Protein VLDL (serum lipoproteins; 100 mg/kg/day): +5%
- % Change compared with control, Total cholesterol HDL (serum lipoproteins; 100 mg/kg/day): -26%
- % Change compared with control, Total cholesterol LDL (serum lipoproteins; 100 mg/kg/day): -31%
- % Change compared with control, Total cholesterol VLDL (serum lipoproteins; 100 mg/kg/day): -46%
- % Change compared with control, Triglycerides VLDL (serum lipoproteins; 100 mg/kg/day): +2%
- Cholesterol HDL/LDL Based on control (serum lipoproteins; 100 mg/kg/day): 1.08
- Cholesterol HDL/LDL (serum lipoproteins; 100 mg/kg/day): 4.03
- relative liver weight ([2]; rat, in vivo): increased
